Series [1] is described as follows: Stability of the product at −18° C. (purity and content over 12 months). Type of series: physicochemical. How it is done: Data of the stability of the product at −18° C. are shown in Table 2 below: […]
Series [2] is described as follows: Fluidity related test (densities, Carr index, Hausner ratio, angle of repose). Type of series: physicochemical. The protocol:
(Two) A fluidity related test was carried out on the crystal form A product of ertapenem sodium, the crystal form B product, the crystal form C product, the crystal form D product, the crystal form E product and the amorphous product of ertapenem sodium. [formula] [formula] [table]

As for `C[C@@H](O)[C@H]1C(=O)N2C(C(=O)[O-])=C(S[C@@H]3CN[C@H](C(=O)Nc4cccc(C(=O)O)c4)C3)[C@H](C)[C@H]12.[Na+]` [Example 2, ertapenem sodium], the Content in series [1] (0 month) was found to be 99.1%; in series [1] (1 month) it was 99.1%; in series [1] (2 months), 99.1%; in series [1] (3 months), 99.1%; in series [1] (4 months) it was 99.1%; in series [1] (5 months) it was 99.0%. Also, the Content in series [1] (6 months), in series [1] (7 months), in series [1] (8 months), in series [1] (9 months), in series [1] (10 months) and in series [1] (11 months) was 99.0% in each case. For the same compound, the Content in series [1] (12 months) amounted to 99.0%. Further, the Purity in series [1] (0 month) worked out at 99.2%; in series [1] (1 month), 99.2%; in series [1] (2 months), 99.2%; in series [1] (3 months) it was 99.2%; in series [1] (4 months), 99.2%; in series [1] (5 months), 99.1%. Also, the Purity in series [1] (6 months) is given as 99.1%; in series [1] (7 months), 99.1%; in series [1] (8 months), 99.1%; in series [1] (9 months), 99.1%; in series [1] (10 months) it was 99.0%; in series [1] (11 months), 99.0%. Besides, the Purity in series [1] (12 months) was found to be 99.0%. The “Stability of the crystal form product (in words)” value in series [1] (12 months) is reported as “very stable”.

In the case of `C[C@@H](O)[C@H]1C(=O)N2C(C(=O)[O-])=C(S[C@@H]3CN[C@H](C(=O)Nc4cccc(C(=O)O)c4)C3)[C@H](C)[C@H]12.[Na+]` [Crystal form A, ertapenem sodium], in series [2], the Angle of repose is recorded as 43°, the Bulk density turned out to be 0.64 g/mL, the Carr index turned out to be 22% and the Hausner ratio came to 1.28. Moreover, in series [2], the Tap density was determined as 0.82 g/mL.

As for `C[C@@H](O)[C@H]1C(=O)N2C(C(=O)[O-])=C(S[C@@H]3CN[C@H](C(=O)Nc4cccc(C(=O)O)c4)C3)[C@H](C)[C@H]12.[Na+]` [Crystal form E, ertapenem sodium], in series [2], the Angle of repose is recorded as 46°, the Bulk density was found to be 0.66 g/mL, the Carr index is on record as 20% and the Hausner ratio is 1.26. The Tap density in series [2] amounted to 0.83 g/mL.

For the compound `C[C@@H](O)[C@H]1C(=O)N2C(C(=O)[O-])=C(S[C@@H]3CN[C@H](C(=O)Nc4cccc(C(=O)O)c4)C3)[C@H](C)[C@H]12.[Na+]` [Example 1, ertapenem sodium], the Content stood at 99.2% in series [1] (0 month); 99.2% in series [1] (1 month); 99.2% in series [1] (2 months); 99.2% in series [1] (3 months); 99.2% in series [1] (4 months); 99.1% in series [1] (5 months). In addition, the Content in series [1] (6 months) was 99.1%; in series [1] (7 months) it was 99.1%; in series [1] (8 months), 99.1%; in series [1] (9 months), 99.1%; in series [1] (10 months), 99.1%; in series [1] (11 months), 99.0%. In addition, the Content in series [1] (12 months) is on record as 99.0%. Also, the Purity came to 99.4% in series [1] (0 month); 99.4% in series [1] (1 month); 99.4% in series [1] (2 months); 99.4% in series [1] (3 months); 99.3% in series [1] (4 months); 99.3% in series [1] (5 months). Also, the Purity in series [1] (6 months) came to 99.3%; in series [1] (7 months) it was 99.3%; in series [1] (8 months) it was 99.3%; in series [1] (9 months), 99.3%; in series [1] (10 months), 99.3%; in series [1] (11 months), 99.2%. In series [1] (12 months), this compound displayed a Purity of 99.2%. Moreover, in series [1] (12 months), the “Stability of the crystal form product (in words)” value is listed as “very stable”.

Turning to `C[C@@H](O)[C@H]1C(=O)N2C(C(=O)[O-])=C(S[C@@H]3CN[C@H](C(=O)Nc4cccc(C(=O)O)c4)C3)[C@H](C)[C@H]12.[Na+]` [Crystal form F, ertapenem sodium], in series [2], the Angle of repose is recorded as 23°, the Bulk density worked out at 0.64 g/mL, the Carr index is on record as 10% and the Hausner ratio stood at 1.11. Moreover, in series [2], the Tap density amounted to 0.71 g/mL. The “Fluidity (in words)” value in series [2] (compared with crystal forms A-E and the amorphous product) is on record as “better fluidity”.

Turning to `C[C@@H](O)[C@H]1C(=O)N2C(C(=O)[O-])=C(S[C@@H]3CN[C@H](C(=O)Nc4cccc(C(=O)O)c4)C3)[C@H](C)[C@H]12.[Na+]` [Crystal form C, ertapenem sodium], in series [2], the Angle of repose is 43°, the Bulk density worked out at 0.63 g/mL, the Carr index is 19% and the Hausner ratio is given as 1.24. For the same compound, the Tap density in series [2] is 0.78 g/mL.

`C[C@@H](O)[C@H]1C(=O)N2C(C(=O)[O-])=C(S[C@@H]3CN[C@H](C(=O)Nc4cccc(C(=O)O)c4)C3)[C@H](C)[C@H]12.[Na+]` [Crystal form B, ertapenem sodium]: in series [2], the Angle of repose worked out at 41°, the Bulk density was 0.63 g/mL, the Carr index was determined as 20% and the Hausner ratio is listed as 1.25. Moreover, the Tap density in series [2] came out at 0.79 g/mL.

With `C[C@@H](O)[C@H]1C(=O)N2C(C(=O)[O-])=C(S[C@@H]3CN[C@H](C(=O)Nc4cccc(C(=O)O)c4)C3)[C@H](C)[C@H]12.[Na+]` [Amorphous, ertapenem sodium], in series [2], the Angle of repose is 47°, the Bulk density turned out to be 0.63 g/mL, the Carr index was 20% and the Hausner ratio stood at 1.25. Moreover, the Tap density in series [2] came out at 0.79 g/mL.

Regarding `C[C@@H](O)[C@H]1C(=O)N2C(C(=O)[O-])=C(S[C@@H]3CN[C@H](C(=O)Nc4cccc(C(=O)O)c4)C3)[C@H](C)[C@H]12.[Na+]` [Crystal form D, ertapenem sodium], in series [2], the Angle of repose was determined as 47°, the Bulk density was 0.64 g/mL, the Carr index turned out to be 21% and the Hausner ratio is 1.27. The Tap density in series [2] is 0.81 g/mL.

For the origin of these results see patent publication US20250034144A1, “NEW CRYSTAL FORM OF ERTAPENEM SODIUM AND PREPARATION METHOD THEREFOR” (ASYMCHEM LABORATORIES (TIANJIN) CO., LTD., priority 2021, published 2025).
